These are literature values, as cited in patent US5614503A, “Amphipathic nucleic acid transporter” (Aronex Pharmaceuticals, Inc., priority 1995, dated 1997).

The test system of series [1] is animal cells. To be noted: some types of animal cells; Felgner, 1990.
For series [2] the following is noted: Moore et al., 1993.

Regarding `CCCCCCCC/C=C\CCCCCCCCOCC(C[N+](C)(C)C)OCCCCCCCC/C=C\CCCCCCCC` (centres unmarked) [DOTMA], in series [1], the “effect on uptake kinetics of nucleic acids” value is “can improve the uptake kinetics of nucleic acids”.
Take `CC(C)[C@@H](CC[C@@H](C)[C@H]1CC[C@H]2[C@@H]3[C@H](O)C[C@H]4C[C@@H](NCCCNCCCCN)CC[C@]4(C)[C@H]3CC[C@]12C)OS(=O)(=O)O` [squalamine]: the antibiotic activity entry in series [2] is “broad-spectrum antibiotic”.
